In experiment [1] the target is Serine/threonine-protein kinase 32A (Homo sapiens) (UniProt Q8WU08). The experiment is described as follows: Selectivity interaction (KinomeScan (DiscoverX)) EUB0001619a STK32A. Particulars: at 1 µM.
Experiment [2] has as its target T1, Cyclin-dependent kinase 11A (Homo sapiens) (UniProt Q9UQ88).
T1 sequence (whole entry): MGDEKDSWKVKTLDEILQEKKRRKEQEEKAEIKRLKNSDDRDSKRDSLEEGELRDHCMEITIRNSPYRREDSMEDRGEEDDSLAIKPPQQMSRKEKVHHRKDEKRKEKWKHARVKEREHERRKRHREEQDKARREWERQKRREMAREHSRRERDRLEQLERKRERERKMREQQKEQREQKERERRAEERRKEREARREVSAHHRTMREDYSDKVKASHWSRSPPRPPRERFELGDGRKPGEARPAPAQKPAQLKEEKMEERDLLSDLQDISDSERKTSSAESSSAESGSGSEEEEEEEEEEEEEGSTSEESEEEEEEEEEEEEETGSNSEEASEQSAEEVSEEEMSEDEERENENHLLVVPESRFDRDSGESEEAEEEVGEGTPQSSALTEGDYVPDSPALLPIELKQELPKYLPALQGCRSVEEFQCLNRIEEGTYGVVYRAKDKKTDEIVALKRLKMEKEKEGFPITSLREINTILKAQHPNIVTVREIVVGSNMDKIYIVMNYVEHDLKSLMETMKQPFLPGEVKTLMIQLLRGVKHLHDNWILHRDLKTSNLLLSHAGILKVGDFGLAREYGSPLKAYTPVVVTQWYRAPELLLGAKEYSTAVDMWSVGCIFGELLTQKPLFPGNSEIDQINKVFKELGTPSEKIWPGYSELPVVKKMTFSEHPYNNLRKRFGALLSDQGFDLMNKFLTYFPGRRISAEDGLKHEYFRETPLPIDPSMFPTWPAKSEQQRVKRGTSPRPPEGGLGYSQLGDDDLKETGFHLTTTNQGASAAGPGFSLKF
The experiment is described as follows: Selectivity interaction (KinomeScan (DiscoverX)) EUB0000607a CDK11A. Particulars: at 10 µM.

Experiment [3] concerns the target T2, Myosin light chain kinase family member 4 (Homo sapiens) (UniProt Q86YV6).
T2 sequence (whole entry): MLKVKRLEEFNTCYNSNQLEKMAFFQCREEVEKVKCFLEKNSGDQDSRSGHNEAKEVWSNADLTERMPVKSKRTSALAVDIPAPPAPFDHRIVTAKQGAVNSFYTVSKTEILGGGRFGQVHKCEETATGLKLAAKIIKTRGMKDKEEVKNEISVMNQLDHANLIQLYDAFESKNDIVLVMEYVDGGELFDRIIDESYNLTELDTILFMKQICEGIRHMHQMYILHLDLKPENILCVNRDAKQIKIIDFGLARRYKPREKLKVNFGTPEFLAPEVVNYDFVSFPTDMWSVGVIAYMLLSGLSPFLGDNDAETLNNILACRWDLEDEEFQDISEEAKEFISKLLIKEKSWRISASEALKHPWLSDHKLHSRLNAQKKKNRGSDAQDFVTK
Particulars: at 10 µM.

The target in experiment [4] is Serine/threonine-protein kinase Nek7 (Homo sapiens) (UniProt Q8TDX7). The experiment is described as follows: Selectivity interaction (ProQinase) EUB0000171b NEK7.
Chain of Serine/threonine-protein kinase Nek7 (Homo sapiens) (Q8TDX7 whole entry, looked up): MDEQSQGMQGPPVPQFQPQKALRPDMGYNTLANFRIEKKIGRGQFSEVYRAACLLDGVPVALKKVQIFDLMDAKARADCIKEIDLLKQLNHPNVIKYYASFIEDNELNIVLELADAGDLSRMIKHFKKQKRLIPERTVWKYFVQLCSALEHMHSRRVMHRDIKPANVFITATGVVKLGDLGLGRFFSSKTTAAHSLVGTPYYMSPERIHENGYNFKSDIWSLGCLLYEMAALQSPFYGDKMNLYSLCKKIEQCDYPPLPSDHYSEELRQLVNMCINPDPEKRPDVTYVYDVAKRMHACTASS
The target in experiment [5] is Phosphatidylinositol 4-phosphate 5-kinase type-1 gamma (Homo sapiens) (UniProt O60331). The experiment is described as follows: Selectivity interaction (Ambit KINOMEscan and KiNATiv profiling in Jurkat cells) EUB0000090b PIP5K1C. The format is cell-based. Particulars: at 1 µM.
Chain of Phosphatidylinositol 4-phosphate 5-kinase type-1 gamma (Homo sapiens) (O60331 whole entry): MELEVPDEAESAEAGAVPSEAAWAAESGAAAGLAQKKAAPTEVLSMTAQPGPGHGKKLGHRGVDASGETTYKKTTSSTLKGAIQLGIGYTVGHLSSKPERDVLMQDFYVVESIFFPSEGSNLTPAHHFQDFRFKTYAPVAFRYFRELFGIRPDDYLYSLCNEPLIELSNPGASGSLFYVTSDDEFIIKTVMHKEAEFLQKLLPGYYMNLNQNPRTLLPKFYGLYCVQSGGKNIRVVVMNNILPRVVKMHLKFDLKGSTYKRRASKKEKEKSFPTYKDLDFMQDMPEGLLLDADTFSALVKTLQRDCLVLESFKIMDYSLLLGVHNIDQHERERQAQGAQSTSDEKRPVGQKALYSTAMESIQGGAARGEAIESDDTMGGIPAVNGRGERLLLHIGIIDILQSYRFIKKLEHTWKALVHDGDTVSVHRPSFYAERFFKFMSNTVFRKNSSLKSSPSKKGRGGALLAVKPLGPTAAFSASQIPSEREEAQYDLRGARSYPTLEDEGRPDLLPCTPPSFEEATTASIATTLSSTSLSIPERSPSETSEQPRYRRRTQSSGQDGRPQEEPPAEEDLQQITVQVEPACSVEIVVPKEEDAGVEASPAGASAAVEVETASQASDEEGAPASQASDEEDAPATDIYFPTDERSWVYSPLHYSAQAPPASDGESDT
The target of experiment [6] is T3, Interleukin-1 receptor-associated kinase 4 (Homo sapiens) (UniProt Q9NWZ3).
T3 sequence (whole entry): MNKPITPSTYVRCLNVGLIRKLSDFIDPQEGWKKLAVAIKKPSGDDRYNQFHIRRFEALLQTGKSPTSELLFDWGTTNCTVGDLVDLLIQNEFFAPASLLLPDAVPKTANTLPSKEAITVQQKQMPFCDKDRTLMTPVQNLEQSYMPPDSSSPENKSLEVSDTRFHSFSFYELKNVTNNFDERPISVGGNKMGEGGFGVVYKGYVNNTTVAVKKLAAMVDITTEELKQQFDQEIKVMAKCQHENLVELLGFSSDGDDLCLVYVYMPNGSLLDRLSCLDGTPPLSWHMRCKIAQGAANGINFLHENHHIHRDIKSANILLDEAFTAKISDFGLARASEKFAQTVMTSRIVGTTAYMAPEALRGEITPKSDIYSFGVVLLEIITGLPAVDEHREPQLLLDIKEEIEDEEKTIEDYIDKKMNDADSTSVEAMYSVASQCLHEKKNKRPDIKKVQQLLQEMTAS
The experiment is described as follows: Selectivity interaction (Upstate Kinase Profiler service (Millipore)) EUB0000056c IRAK4. Particulars: at 1 µM.

Experiment [7] has as its target Myosin-IIIa (Homo sapiens) (UniProt Q8NEV4). The experiment is described as follows: Selectivity interaction (KinomeScan (DiscoverX)) EUB0000092b MYO3A. To be noted: at 10 µM.

Chain of Myosin-IIIa (Homo sapiens) (Q8NEV4 whole entry): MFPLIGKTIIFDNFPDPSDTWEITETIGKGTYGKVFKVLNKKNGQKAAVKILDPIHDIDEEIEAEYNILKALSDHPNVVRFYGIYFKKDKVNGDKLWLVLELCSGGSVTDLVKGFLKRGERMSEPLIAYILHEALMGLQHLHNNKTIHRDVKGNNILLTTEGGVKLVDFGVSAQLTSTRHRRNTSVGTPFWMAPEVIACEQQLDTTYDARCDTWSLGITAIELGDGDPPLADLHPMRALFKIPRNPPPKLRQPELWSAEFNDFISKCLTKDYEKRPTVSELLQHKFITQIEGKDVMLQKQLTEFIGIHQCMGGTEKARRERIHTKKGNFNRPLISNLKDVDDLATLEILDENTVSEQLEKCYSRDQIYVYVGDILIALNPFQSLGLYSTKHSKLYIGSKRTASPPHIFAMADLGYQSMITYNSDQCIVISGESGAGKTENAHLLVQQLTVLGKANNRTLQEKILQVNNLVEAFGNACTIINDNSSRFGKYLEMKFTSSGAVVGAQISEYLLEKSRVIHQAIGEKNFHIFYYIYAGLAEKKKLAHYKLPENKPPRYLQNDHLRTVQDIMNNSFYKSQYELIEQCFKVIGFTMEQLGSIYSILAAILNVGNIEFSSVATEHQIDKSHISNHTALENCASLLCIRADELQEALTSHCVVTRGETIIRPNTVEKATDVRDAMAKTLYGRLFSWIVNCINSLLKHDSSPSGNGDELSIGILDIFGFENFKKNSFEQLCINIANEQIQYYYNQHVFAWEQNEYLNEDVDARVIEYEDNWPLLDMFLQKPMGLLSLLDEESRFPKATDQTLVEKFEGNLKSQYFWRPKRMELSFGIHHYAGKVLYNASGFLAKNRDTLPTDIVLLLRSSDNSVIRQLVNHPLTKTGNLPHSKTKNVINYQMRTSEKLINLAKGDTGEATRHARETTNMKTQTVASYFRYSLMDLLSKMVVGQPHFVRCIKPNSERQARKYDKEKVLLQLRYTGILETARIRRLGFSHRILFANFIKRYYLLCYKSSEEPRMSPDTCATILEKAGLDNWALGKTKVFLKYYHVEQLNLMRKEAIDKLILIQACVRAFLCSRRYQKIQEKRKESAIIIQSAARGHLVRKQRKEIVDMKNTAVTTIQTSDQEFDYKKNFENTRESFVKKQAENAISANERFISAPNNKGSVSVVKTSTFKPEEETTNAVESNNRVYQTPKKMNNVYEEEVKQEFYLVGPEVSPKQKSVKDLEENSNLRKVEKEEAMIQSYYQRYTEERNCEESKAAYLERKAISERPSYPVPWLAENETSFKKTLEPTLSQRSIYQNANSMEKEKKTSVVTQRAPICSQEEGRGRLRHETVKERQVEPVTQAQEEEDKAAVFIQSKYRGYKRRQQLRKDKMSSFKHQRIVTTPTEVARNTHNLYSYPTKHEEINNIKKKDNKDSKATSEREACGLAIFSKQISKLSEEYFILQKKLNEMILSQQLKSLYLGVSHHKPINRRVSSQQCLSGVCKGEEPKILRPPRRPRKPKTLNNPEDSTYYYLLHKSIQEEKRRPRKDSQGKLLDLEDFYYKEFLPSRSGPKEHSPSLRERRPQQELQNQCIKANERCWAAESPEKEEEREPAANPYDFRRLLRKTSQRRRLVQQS
Chain of Serine/threonine-protein kinase 32A (Homo sapiens) (Q8WU08 whole entry): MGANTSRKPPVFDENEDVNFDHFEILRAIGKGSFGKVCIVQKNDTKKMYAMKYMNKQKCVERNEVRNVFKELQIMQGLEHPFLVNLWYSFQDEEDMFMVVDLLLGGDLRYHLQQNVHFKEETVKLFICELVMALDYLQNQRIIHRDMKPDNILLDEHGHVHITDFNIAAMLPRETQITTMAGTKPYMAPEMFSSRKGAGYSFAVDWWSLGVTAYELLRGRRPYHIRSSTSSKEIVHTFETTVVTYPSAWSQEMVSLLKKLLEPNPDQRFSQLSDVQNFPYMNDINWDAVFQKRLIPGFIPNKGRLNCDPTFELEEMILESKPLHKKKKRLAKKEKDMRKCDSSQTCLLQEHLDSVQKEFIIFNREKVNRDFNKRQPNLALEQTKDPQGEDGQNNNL

Consider `N#Cc1cccc(-c2c[nH]c3ncnc(N4CCOCC4)c23)c1`, for which, in experiment [1], the % of control turned out to be 100%. As to `CNC(=O)Nc1ccc(-c2nc(N3CC4CCC(C3)O4)c3cnn(C4CCC5(CC4)OCCO5)c3n2)cc1`, the % of control in experiment [2] was determined as 97%.

`Cc1cc([C@@H](C)Nc2ccccc2C(=O)O)c2nc(N3CCOCC3)cc(=O)n2c1` [AZD-6482]: the % of control in experiment [3] was 98%. On to `C=CC(=O)Nc1cccc(C(=O)Nc2ccc(Nc3cc(-c4[nH]c(SC)nc4C)ccn3)cc2)c1`, for which the % of control came out at 91% in experiment [4] (at 1 µM) and 95% in experiment [4] (at 5 µM). In turn, `CN(C)C/C=C/C(=O)Nc1ccc(C(=O)N2CCCC(Nc3ncc(Cl)c(-c4c[nH]c5ccccc45)n3)C2)cc1` (stereo not drawn) displayed a % of control in experiment [5] of 100%. `Cc1ccc(-c2ccc3c(ccc4sc5c(c43)NC[C@@H](C)NC5=O)n2)cn1`: the % of inhibition in experiment [6] worked out at 13%. The compound `CCC(=O)N1CCN(c2ccc(-n3c(=O)ccc4cnc5ccc(-c6cnc7ccccc7c6)cc5c43)cc2C(F)(F)F)CC1` displayed a % of control in experiment [7] of 100%.

The record behind these values is ChEMBL document CHEMBL5465560, “Selectivity Literature for EUbOPEN Chemogenomic Library” (2024).
